IC50 data for 61 compounds are collected here from PubChem BioAssay AID489035 (Sanford-Burnham Center for Chemical Genomics, 2010).

Active and inactive are the calls of the source. How the calls were made is not given here.

The test system of this test is Jurkat NF-kB reporter, TCR-induced, luciferase luminescence. The test is described as follows: T-cell NF-kB luciferase reporter inhibition – Jurkat cells, luminescence, dose response (AID 489035). (In general: Reporter assays use an easily measured gene product as a stand-in for the process of interest.)
`O=C(NCc1ccc2c(c1)OCO2)c1cc([N+](=O)[O-])ccc1N1CCOCC1`: the IC50 (usually the concentration at which inhibition is half-maximal) is > 80 µM (inactive). As for `CC(C)(C)c1cc(C=C(C#N)C#N)cc(C(C)(C)C)c1O`, the figure is > 80 µM (inactive).

For the compound `Cc1c(C)c2ccc(OCC(=O)Nc3ccccn3)c(C)c2oc1=O`, the IC50 was 0.39 µM. As for `COc1ccccc1NC(=O)Cn1nnc(C(=O)NCc2cccs2)c1N`, the IC50 is > 80 µM (inactive).

Regarding `O=C(Nc1ccc(S(=O)(=O)N2CCOCC2)cc1)c1ccc(CN2CCc3ccccc3C2)cc1`, the IC50 was 12.7 µM. For the compound `O=C1C=CC(O)(c2cc(=O)c3c(O)cc(O)cc3o2)C=C1`, the IC50 is 2.21 µM. Consider `CN(C)c1ccc2c(c1)OC(N)=C(C#N)C2c1cccc(F)c1` (stereo unspecified), for which the IC50 was 50.2 µM (inactive). Turning to `C=C(C)C(=O)O[C@H]1C/C(C)=C\C(=O)/C=C(\C)[C@H](O)[C@@H]2OC(=O)C(=C)[C@@H]21`, the IC50 was 2.06 µM. Take `CCOc1ccccc1NC(=O)Cn1nnc(C(=O)NCc2ccco2)c1N`: the IC50 was > 80 µM (inactive). Regarding `CCCCc1ccc(NC(=O)C(=O)NCCN2CCN(Cc3ccc([N+](=O)[O-])cc3)CC2)cc1`, the IC50 was > 80 µM (inactive). `CCN1/C(=C/c2ccc3ccccc3[n+]2CC)C=Cc2ccccc21`: the IC50 is 11.2 µM.

Turning to `CCCC(=O)NC(c1ccc(C(C)C)cc1)c1ccc2cccnc2c1O` (stereo unspecified), the IC50 is 4.15 µM.

With `COc1cc(NS(C)(=O)=O)ccc1Nc1c2ccccc2nc2ccccc12`, the IC50 is 9.5 µM. Consider `CCN1C=CC(=C2C(=O)c3ccccc3C2=O)C=C1`, for which the IC50 is 1.03 µM. `CC(=O)O[C@H]1C(=O)[C@@]2(C)C([C@H](OC(=O)c3ccccc3)[C@]3(O)C[C@H](OC(=O)[C@H](O)[C@@H](NC(=O)c4ccccc4)c4ccccc4)C(C)=C1C3(C)C)[C@]1(OC(C)=O)CO[C@@H]1C[C@H]2O` (stereo partly specified): the IC50 is under 0.16 µM. The same measure for `CC(=O)O[C@H]1C(=O)[C@]2(C)[C@H]([C@H](OC(=O)c3ccccc3)[C@]3(O)C[C@H](OC(=O)[C@H](O)[C@@H](NC(=O)c4ccccc4)c4ccccc4)C(C)=C1C3(C)C)[C@]1(OC(C)=O)CO[C@@H]1C[C@@H]2O`: 0.51 µM; for `Oc1ccc2ccccc2c1/C=N/Nc1nnc(-c2ncc[nH]2)c2ccccc12`: > 80 µM (inactive).

As to `C=CCn1c(C)cc(C2=NNC(=NCC)SC2)c1C`, the IC50 is under 0.16 µM. In the case of `COc1cccc(OC)c1C1=NCC(=O)Nc2c1oc1ccc(Br)cc21`, the IC50 was > 80 µM (inactive). Regarding `O=S(=O)(c1ccc2c(c1)OCCO2)N1CCN(c2ncnc3sccc23)CC1`, the IC50 was > 80 µM (inactive).

Regarding `C/C=C/COC(=O)c1[nH]c2c(c1C)C(=O)CC(c1ccco1)C2` (stereo unspecified), the IC50 is > 80 µM (inactive). With `Cc1cccc(NS(=O)(=O)c2ccc(-c3cnc(C4CC4)o3)cc2)c1`, the IC50 was > 80 µM (inactive). On to `COc1ccc(C(=O)Nc2ccc3[nH]c(-c4cccc(OC)c4)cc(=O)c3c2)cc1`, for which the IC50 is under 0.16 µM. On to `CC1(C)Cc2c(sc(NC(=O)COc3cccc4ccccc34)c2C#N)C(C)(C)N1`, for which the IC50 was 13.5 µM. For `c1ccc2c(c1)CCN(c1ncnc3c1[nH]c1ccccc13)C2`, the IC50 was 24.2 µM (inactive).

Consider `Cc1nc(SCC(=O)Nc2nc3ccccc3s2)c(C#N)c(C)c1C`, for which the IC50 was 0.75 µM.

Turning to `COc1ccc(OC)c(C2CC(=O)c3c([nH]c(C(=O)OC(C)C)c3C)C2)c1` (stereo unspecified), the IC50 was > 80 µM (inactive). Consider `N#Cc1ccc(-c2cccs2)nc1SCc1cccnc1`, for which the IC50 is > 80 µM (inactive).

As to `CCOC(=O)COc1cccc2c(=O)n(CC(=O)NCc3ccccc3)ccc12`, the IC50 was > 80 µM (inactive). Consider `COc1ccccc1C(=O)N(CCC1CCCN1C)c1nc2ccccc2s1` (stereo unspecified), for which the IC50 was 45.7 µM (inactive). Take `Nc1nc(Cl)cc(N2CCC(c3cc(-c4ccc(Cl)cc4)n[nH]3)CC2)n1`: the IC50 is 1.87 µM. For the compound `Cc1ccc(-c2cc(-c3ccc(C)cc3)[n+](-c3ccccc3)c(-c3ccc(C)cc3)c2)cc1`, the half-maximal inhibitory concentration (IC50) is 6.13 µM.

As to `CCc1cc(C(=O)NC2CCCc3c2cnn3-c2cccc(C)c2C)n(C)n1` (stereo unspecified), the IC50 is > 80 µM (inactive). As for `CC1=NNC(=O)/C1=C\c1cn(-c2ccccc2)nc1-c1ccc(Cl)cc1`, the figure is 1.13 µM. On to `CC1=C([N+](=O)[O-])C(c2ccccc2)C2=C(N1)c1ccccc1C2=O` (stereo unspecified), for which the IC50 was 30.3 µM (inactive). As to `O=C(Nc1ccncc1)C1CCCN(S(=O)(=O)c2cccc3cccnc23)C1` (stereo unspecified), the IC50 was > 80 µM (inactive). On to `Cc1ccc2oc(/N=C(\N)NC(=O)C(C)(C)C)nc2c1`, for which the IC50 was 6.68 µM. On to `Cc1cc(C)cc(NC(=O)c2cc(C)n(Cc3cccs3)c2C)c1`, for which the IC50 is 5.13 µM. `COc1cc(-c2noc(C)c2/C=C/c2cccc([N+](=O)[O-])c2)cc(OC)c1OC`: the IC50 is > 80 µM (inactive). For `COC(=O)c1ccc2nc(Nc3nc4c(F)cc(F)cc4s3)sc2c1`, the IC50 is 52.9 µM (inactive). As for `O=Cc1cc2ccccc2nc1SCc1ccc(Cl)c(Cl)c1`, the figure is > 80 µM (inactive); as for `CCCCCCCCCn1c2c(c(=N)c3c1CCC3)CCCC2`, 3.4 µM; as for `CCOc1ccc(N(CC(=O)Nc2ccccc2C)S(=O)(=O)c2c(C)noc2C)cc1`, > 80 µM (inactive). `Cc1sc2ncnc(NC3CCN(Cc4ccccc4)CC3)c2c1C`: the IC50 is > 80 µM (inactive). Regarding `Cc1ccc(N/C(N)=N/c2nc(CSc3nnc(C)s3)cc(=O)[nH]2)c(C)c1`, the IC50 is 42.1 µM (inactive). `Oc1ccccc1N=Nc1nc(-c2ccccc2)c(-c2ccccc2)[nH]1`: the IC50 was 0.82 µM. As for `COC(=O)c1cnc(Oc2ccc(NC(=O)NC(=O)c3c(F)cccc3Cl)cc2)cc1C(F)(F)F`, the figure is > 80 µM (inactive); as for `COc1cc2nc(NC(=O)c3ccco3)sc(=O)c2cc1OC`, 0.47 µM; as for `CCCOc1ccccc1C1CC(=O)Nc2cc3c(cc21)OCO3` (stereo unspecified), > 80 µM (inactive). As for `Cc1cc(-c2ccc(C(C)C)c(S(=O)(=O)N3CCN(c4ccccc4)CC3)c2)on1`, the figure is > 80 µM (inactive); as for `CCOC(=O)c1[nH]c(C)c(C(=O)Nc2ccccc2C)c1C`, under 0.16 µM; as for `Cc1ccc(O)c(NC(=O)CCC2CCCCC2)c1`, > 80 µM (inactive). Turning to `Cc1ccc(-n2ncc3c(N4CCN(c5ccccc5)CC4)ncnc32)c(C)c1`, the IC50 was 4.9 µM. As for `CCCCN=C[C@]12CCC(O)CC1(O)CCC1[C@@H]2CC[C@]2(C)[C@H](C3C=CC(=O)O3)CCC12O` (stereo partly specified), the figure is > 80 µM (inactive); as for `CCC(O)C1CCN(C(=O)c2cc(COc3ccc4ncccc4c3)on2)CC1` (stereo unspecified), 0.69 µM. The same measure for `COc1ccc(Nc2nc3cc(C)ccc3cc2C#N)c(OC)c1`: > 80 µM (inactive). `CC(C)(C)c1csc(Sc2ccc([N+](=O)[O-])cn2)n1`: the IC50 was 3.24 µM. In the case of `CCOC(=O)N1CCN(C(=O)C2CCCN(Cc3nc(-c4ccc(Cl)cc4)oc3C)C2)CC1` (stereo unspecified), the IC50 is > 80 µM (inactive).

On to `Cc1ccc(NS(=O)(=O)c2ccc(C(=O)NC3CCN(Cc4ccccc4)CC3)cc2)cc1`, for which the IC50 is 19.8 µM. The same measure for `COc1ccc(-c2csc(NC(=O)C3CCN(c4ncnc5sc(C)c(C)c45)CC3)n2)cc1OC`: > 80 µM (inactive); for `CC(Oc1ccc(Cl)cc1Cl)C(=O)Nc1ccncc1` (stereo unspecified): 61.3 µM (inactive).
